Experiment [1] deals with mCa2+ efflux channels. Put plainly: Mitochondrial Ca2+ efflux in permeabilized HEK293T cells. The class given is cell-based, human. The note with it: for effect on mCa2+ efflux: 1 μM added after 20 μM Ca2+ pulse. On the procedure: (§1) An equal number of IHEK293T (6×10^6 cells) were washed in Ca^2+ free PBS, pH 7.4, resuspended and permeabilized with 40 μg/ml digitonin in 1.5 ml of intracellular medium (ICM) composed of 120 mM KCl, 10 mM NaCl, 1 mM K—H2PO4, 20 mM HE PES-Tris, pH 7.2 and 2 μM thapsigargin to block the SERCA pump. All measurements were performed in the presence of 2 mM succinate. The permeabilized cells were loaded with JC-1 (800 nM) and Fura2-FF (0.5 μM), respectively. Fluorescence was monitored in a multi-wavelength excitation dual-wavelength emission fluorimeter. [Ca^2+]out is represented as the excitation ratio (340 nm/380 nm) of Fura2-FF/FA fluorescence and ΔΨm as the ratio of the fluorescence of J-aggregate (570 nm excitation/595 nm emission) and monomer (490 nm excitation/535 nm emission) forms of JC-1. A series of extra-mitochondrial Ca^2+ bolus (20 μM) was added and mitochondrial uncoupler, CCCP (2 jμM), were added at the indicated time points. All of the experiments were performed at 37° C. with constant stirring.
FIG. 4D is a graph showing assessment of mitochondrial Ca^2+ influx and efflux rates. Permeabilized HEK293T cells were pulsed with 20 μM Ca^2+ at 350 s to measure mitochondrial Ca^2+ uptake, followed by the addition of the 1 μM C-2 or Ru360 at 550 s, 10 μM CGP37157 at 600 s, and 6 μM CCCP at 750 s. In FIG. 4D, a representative trace depicts the comparison of C-2 and Ru360. FIG. 4E is a bar chart showing quantitation of Ca^2+ influx rate. FIG. 4F is a bar chart showing quantification of Ca^2+ efflux rate after addition of C-2 or Ru360. FIG. 4G is a bar chart showing quantification of CCCP-induced release of accumulated mitochondrial Ca^2+. […] To further confirm the selectivity of C-2 for the MCU, mCa^2+ uptake, mCa^2+ efflux rates and matrix Ca^2+ levels were measured in permeabilized HEK293T cells before and after treatment with C-2 using the fluorescent Ca^2+ indicator Fura-2-FF. […] Ru360 or C-2 were next added to inhibit MCU-mediated Ca^2+ uptake and subsequently visualize [Ca^2+]m efflux (FIG. 4D).

The target in experiment [2] is T1, human MCU S259A mutant (Homo sapiens, UniProt Q8NE86, S259A).
T1 construct: stably expressing flag-tagged full-length human wild type MCU (MCU^WT) or the mutant S259A (MCU^S259A); Flag; expressed in transfected cells
T1 sequence (Q8NE86 51-351 S259A): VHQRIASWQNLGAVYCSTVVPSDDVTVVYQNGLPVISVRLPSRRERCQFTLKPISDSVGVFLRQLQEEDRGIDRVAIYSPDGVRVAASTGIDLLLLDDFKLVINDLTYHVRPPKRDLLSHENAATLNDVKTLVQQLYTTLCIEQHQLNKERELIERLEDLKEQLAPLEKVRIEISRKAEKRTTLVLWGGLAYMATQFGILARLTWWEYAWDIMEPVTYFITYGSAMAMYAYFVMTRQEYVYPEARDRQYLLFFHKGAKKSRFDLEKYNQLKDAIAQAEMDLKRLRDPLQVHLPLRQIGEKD
T1 sequence (Q9H4I9 48-107 partner limits assumed): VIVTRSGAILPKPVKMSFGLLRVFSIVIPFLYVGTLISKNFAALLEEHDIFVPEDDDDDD
Put plainly: mCa2+ uptake in permeabilized HEK293T cells expressing MCU S259A mutant. The class given is cell-based. The note with it: C-2 10 nM, Ru360 500 nM. How it is done:
as §1
Having observed the high potency of C-2 compared to Ru360, the mechanism of action of C-2 was next investigated. […] HIEK293T cells stably expressing flag-tagged full-length human wild type MCU (MCU^WT) or the mutant S259A (MCU^S259A) were permeabilized and mCa^2+ uptake was measured as above.

Experiment [3] concerns the target T2, recombinant human MCU-NTD (residues 72-189) (Homo sapiens, UniProt Q8NE86).
T2 construct: recombinant human MCU-NTD (residues 72-189)
T2 sequence (Q8NE86 72-189): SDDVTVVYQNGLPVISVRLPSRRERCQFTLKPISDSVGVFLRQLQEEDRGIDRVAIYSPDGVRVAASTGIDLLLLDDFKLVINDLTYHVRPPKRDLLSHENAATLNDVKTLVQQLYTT
Nature of the experiment: Interaction with recombinant MCU-NTD (NMR HSQC, SDS-PAGE). The format is binding. The following applies: for interaction with MCU-NTD in solution: cell-free, C-2 at 3-fold molar excess. An excerpt: To further elucidate the potential interaction of C-2 with the MCU-NTD, the interaction between C-2 and the uniformly ^15N-labeled recombinant human MCU-NTD (residues 72-189) was investigated using solution nuclear magnetic resonance (NMR) spectroscopy.
To determine if the MCU-NTD remained intact upon treatment with C-2, the insoluble aggregate (Insol.+C-2) was resuspended in loading dye and the migration of the protein was compared to untreated soluble MCU-NTD (Sol.) by SDIS-PAGE analysis. […] The appearance of the trimer and higher order aggregates upon treatment with C-2 may indicate that the MCU-NTD conformation induced by C-2 is different from that of the native conformation. Similar MCU-NTD aggregation was observed when the MCU-NTD was treated with lower molar ratios (i.e. 1:2 and 1:1) of C-2.
The clustering of these perturbations could be a result of i) direct binding with the compound, ii) indirect effects of the lower soluble protein concentration shifting the self-association equilibrium, or iii) C-2-mediated modifications to the protein. […] Thus, the NTD may be a potent target for MCU inhibition that is only accessible to C-2 because of its enhanced membrane permeability when compared to Ru360.

As for `N.N.N.N.N.N.N.N.[Cl-].[Cl-].[N-3].[Ru+4].[Ru+4]` [C-2, [Ru2(μ-N)(NH3)8Cl2]Cl3], in experiment [1], the “effect on mCa2+ efflux” value is “do not affect mCa^2+ efflux channels”. Moreover, in experiment [1] (10 μM CGP37157, 6 μM CCCP), the “change in activity upon treatment with CGP-37157 and CCCP” value is listed as “No change”. Also, the “effect of MCU S259A mutation on MCU inhibition compared to MCU WT cells” value in experiment [2] is recorded as “almost no change in the inhibitory activity”. The “SDS-PAGE of protein precipitate formed with MCU-NTD” value in experiment [3] (Coomassie blue staining) is “distinct and systematic laddering corresponding to the presence of monomer, dimer, trimer, tetramer, and higher aggregate formation”. Also, in experiment [3], the “interaction with MCU-NTD in solution” value is “rapid formation of insoluble precipitate”.

Turning to `N.N.N.N.N.N.N.N.O=C[O-].O=C[O-].[O-2].[Ru+3].[Ru+4]` [Ru360, reference compound], the “effect on mCa2+ efflux” value in experiment [1] is recorded as “do not affect mCa^2+ efflux channels”. The “effect of MCU S259A mutation on MCU inhibition compared to MCU WT cells” value in experiment [2] was “partial resistance to Ru360 inhibition”. For the same molecule, in experiment [3], the “interaction with MCU-NTD in solution” value is “interacts with the purified MCU-NTD in a cell-free system, giving rise to precipitation and systematic laddering”.

The values above are taken from patent publication US11154569B2, “Ruthenium μ-nitrido complexes and their use as calcium uptake inhibitors” (CORNELL UNIVERSITY, priority 2018, dated 2021).
